Assay results reported in US9707233B2, “Heterocyclylamines as PI3K inhibitors” (Incyte Corporation, priority 2011, dated 2017).

Biological target: PI3Kδ (p110δ/p85α) (Homo sapiens (Human), UniProt O00329)
Experiment: PI3Kδ scintillation proximity assay (Example A3)
Assay type: biochemical
Conditions: 20 μM ATP, 20 μM PIP2, 4 nM PI3Kδ; read-out: PI3Kδ SPA IC50
How it was run: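 Human PI3Kδ (p110δ/p85α, 4 nM) with 20 μM PIP2 and 20 μM ATP plus [γ-33P]ATP in 20 mM MOPS pH 6.7, 10 mM MgCl2, 5 mM DTT, 0.03% CHAPS, 0.5% DMSO, room temperature. Reaction stopped with EDTA/excess ATP; product captured on WGA SPA beads and counted. IC50 from percent control activity vs log inhibitor.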

PI3Kδ (p110δ/p85α), sequence (O00329 whole entry): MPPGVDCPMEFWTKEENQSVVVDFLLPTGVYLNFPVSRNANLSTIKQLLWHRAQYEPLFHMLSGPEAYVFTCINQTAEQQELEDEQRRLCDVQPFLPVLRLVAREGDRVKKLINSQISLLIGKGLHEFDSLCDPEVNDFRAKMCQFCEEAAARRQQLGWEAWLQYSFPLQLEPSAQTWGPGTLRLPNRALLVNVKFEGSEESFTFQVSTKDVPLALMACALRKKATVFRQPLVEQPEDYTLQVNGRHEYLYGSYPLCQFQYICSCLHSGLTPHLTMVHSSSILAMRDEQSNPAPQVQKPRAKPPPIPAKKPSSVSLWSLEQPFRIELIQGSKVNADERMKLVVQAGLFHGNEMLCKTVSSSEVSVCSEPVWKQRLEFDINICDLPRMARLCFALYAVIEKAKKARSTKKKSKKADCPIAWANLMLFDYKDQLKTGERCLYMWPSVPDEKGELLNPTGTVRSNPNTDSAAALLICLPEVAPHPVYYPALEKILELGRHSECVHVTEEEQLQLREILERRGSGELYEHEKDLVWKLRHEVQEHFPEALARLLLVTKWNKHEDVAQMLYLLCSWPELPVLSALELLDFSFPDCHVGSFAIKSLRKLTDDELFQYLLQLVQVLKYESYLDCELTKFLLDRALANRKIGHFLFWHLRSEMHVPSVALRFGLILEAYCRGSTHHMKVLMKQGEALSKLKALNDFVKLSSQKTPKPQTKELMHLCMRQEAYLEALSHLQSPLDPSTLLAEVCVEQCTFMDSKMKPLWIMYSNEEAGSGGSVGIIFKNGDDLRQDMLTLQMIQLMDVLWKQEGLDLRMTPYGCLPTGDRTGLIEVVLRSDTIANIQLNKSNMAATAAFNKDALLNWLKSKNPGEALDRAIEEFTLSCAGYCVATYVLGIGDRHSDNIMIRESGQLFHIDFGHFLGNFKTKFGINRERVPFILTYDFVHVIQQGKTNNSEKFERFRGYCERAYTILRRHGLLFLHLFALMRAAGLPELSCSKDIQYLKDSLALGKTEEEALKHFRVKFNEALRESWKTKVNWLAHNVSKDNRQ
PI3Kδ (p110δ/p85α), sequence (P27986 whole entry partner): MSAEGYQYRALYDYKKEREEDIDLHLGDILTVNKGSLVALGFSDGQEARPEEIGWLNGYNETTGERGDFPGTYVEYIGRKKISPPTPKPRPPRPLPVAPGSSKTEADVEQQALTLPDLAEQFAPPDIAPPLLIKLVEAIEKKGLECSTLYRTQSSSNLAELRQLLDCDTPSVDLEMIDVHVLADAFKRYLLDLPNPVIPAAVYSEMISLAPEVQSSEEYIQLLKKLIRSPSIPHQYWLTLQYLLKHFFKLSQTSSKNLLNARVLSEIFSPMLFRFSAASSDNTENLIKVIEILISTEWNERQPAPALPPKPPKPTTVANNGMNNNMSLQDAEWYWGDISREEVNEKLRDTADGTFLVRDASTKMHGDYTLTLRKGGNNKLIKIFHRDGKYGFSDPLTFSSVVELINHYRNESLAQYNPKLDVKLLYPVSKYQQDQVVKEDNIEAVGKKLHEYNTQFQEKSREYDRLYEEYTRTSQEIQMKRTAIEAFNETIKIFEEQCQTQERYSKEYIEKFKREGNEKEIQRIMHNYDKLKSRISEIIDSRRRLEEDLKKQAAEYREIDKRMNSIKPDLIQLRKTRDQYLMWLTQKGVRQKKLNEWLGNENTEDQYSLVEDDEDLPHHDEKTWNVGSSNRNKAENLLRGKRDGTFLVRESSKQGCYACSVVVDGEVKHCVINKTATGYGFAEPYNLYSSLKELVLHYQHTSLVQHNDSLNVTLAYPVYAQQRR

Row | Compound | IC50 [nM]
1 | COc1c(C(C)n2nc(C)c3c(N)ncnc32)cc(Cl)c(C#N)c1C1CN(C(=O)OC(C)C)C1 (single isomer, unassigned) [Example 291, Isopropyl 3-{3-[1-(4-amino-3-methyl-1H-pyrazolo[3,4-d]pyrimidin-1-yl)ethyl]-5-chloro-6-cyano-2-methoxyphenyl}azetidine-1-carboxylate] | ≤ 10
2 | CCOc1c(C(C)n2nc(C)c3c(N)ncnc32)cc(Cl)c(C#N)c1C1CN(CC(C)C)C1 (single isomer, unassigned) [Example 216, 4-[1-(4-Amino-3-methyl-1H-pyrazolo[3,4-d]pyrimidin-1-yl)ethyl]-6-chloro-3-ethoxy-2-(1-isobutylazetidin-3-yl)benzonitrile] | ≤ 10
3 | COc1c(C(C)n2nc(C)c3c(N)ncnc32)cc(Cl)c(C#N)c1C1CN(C2CCC2)C1 (single isomer, unassigned) [Example 267, 4-[1-(4-Amino-3-methyl-1H-pyrazolo[3,4-d]pyrimidin-1-yl)ethyl]-6-chloro-2-(1-cyclobutylazetidin-3-yl)-3-methoxybenzonitrile] | ≤ 10
4 | CCOc1c(C(C)n2nc(C)c3c(N)ncnc32)cc(Cl)c(C#N)c1C1CN(C(C)C)C1 (stereo not drawn) [Example 215, 4-[1-(4-Amino-3-methyl-1H-pyrazolo[3,4-d]pyrimidin-1-yl)ethyl]-6-chloro-3-ethoxy-2-(1-isopropylazetidin-3-yl)benzonitrile] | ≤ 10
5 | CCOc1c(C(C)n2nc(C)c3c(N)ncnc32)cc(Cl)c(C#N)c1C1CN(C(COC)COC)C1 (single isomer, unassigned) [Example 226, 4-[1-(4-Amino-3-methyl-1H-pyrazolo[3,4-d]pyrimidin-1-yl)ethyl]-6-chloro-3-ethoxy-2-{1-[2-methoxy-1-(methoxymethyl)ethyl]azetidin-3-yl}benzonitrile] | ≤ 10
6 | COc1c(C(C)n2ccc(=O)c3c(N)ncnc32)cc(Cl)c(C)c1-c1ccc(C(=O)N(C)C)nc1 (single isomer, unassigned) [25 (2nd peak), 5-{3-[1-(4-Amino-5-oxopyrido[2,3-d]pyrimidin-8(5H)-yl)ethyl]-5-chloro-2-methoxy-6-methylphenyl}-N,N-dimethylpyridine-2-carboxamide] | ≤ 10
7 | CNC(=O)c1ccc(-c2c(C)c(Cl)cc(C(C)n3ccc(=O)c4c(N)ncnc43)c2OC)cn1 (racemic) [Example 33, 5-{3-[1-(4-amino-5-oxopyrido[2,3-d]pyrimidin-8(5H)-yl)ethyl]-5-chloro-2-methoxy-6-methylphenyl}-N-methylpyridine-2-carboxamide bis(trifluoroacetate)] | ≤ 10
8 | CCOc1c(C(C)n2nc(C)c3c(N)ncnc32)cc(Cl)c(C#N)c1N1CC(COC)C1 (racemic) [Example 341, 4-[1-(4-amino-3-methyl-1H-pyrazolo[3,4-d]pyrimidin-1-yl)ethyl]-6-chloro-3-ethoxy-2-[3-(methoxymethyl)azetidin-1-yl]benzonitrile] | ≤ 10
9 | COc1c(C(C)n2nc(C)c3c(N)ncnc32)cc(Cl)c(C)c1C1CN(CC(N)=O)C1 (stereo not drawn) [Example 111, 2-(3-{3-[1-(4-Amino-3-methyl-1H-pyrazolo[3,4-d]pyrimidin-1-yl)ethyl]-5-chloro-2-methoxy-6-methylphenyl}azetidin-1-yl)acetamide] | ≤ 10
10 | CCOc1c(C(C)n2nc(-c3cccnc3)c3c(N)ncnc32)cc(Cl)c(C)c1-c1ccc(C(=O)N(C)C)nc1 (racemic) [Example 61, 5-{3-[1-(4-amino-3-pyridin-3-yl-1H-pyrazolo[3,4-d]pyrimidin-1-yl)ethyl]-5-chloro-2-ethoxy-6-methylphenyl}-N,N-dimethylpyridine-2-carboxamide tris(trifluoroacetate)] | ≤ 10
11 | CCOc1c(C(C)n2nc(C)c3c(N)ncnc32)cc(Cl)c(C#N)c1C1CN(C(=O)NC(C)(C)C)C1 (single isomer, unassigned) [Example 255, 3-{3-[1-(4-Amino-3-methyl-1H-pyrazolo[3,4-d]pyrimidin-1-yl)ethyl]-5-chloro-6-cyano-2-ethoxyphenyl}-N-(tert-butyl)azetidine-1-carboxamide] | ≤ 10
12 | CCN1CC(c2c(C#N)c(Cl)cc(C(C)n3nc(C)c4c(N)ncnc43)c2OC)C1 (single isomer, unassigned) [Example 263, 4-[1-(4-Amino-3-methyl-1H-pyrazolo[3,4-d]pyrimidin-1-yl)ethyl]-6-chloro-2-(1-ethylazetidin-3-yl)-3-methoxybenzonitrile] | ≤ 10
13 | CCOc1c(C(C)n2nc(C)c3c(N)ncnc32)cc(Cl)c(C#N)c1C1CN(CC(F)(F)F)C1 (single isomer, unassigned) [Example 233, 4-[1-(4-Amino-3-methyl-1H-pyrazolo[3,4-d]pyrimidin-1-yl)ethyl]-6-chloro-3-ethoxy-2-[1-(2,2,2-trifluoroethyl)azetidin-3-yl]benzonitrile] | ≤ 10
14 | COc1c(C(C)n2nc(C)c3c(N)ncnc32)cc(Cl)c(C#N)c1C1CN(CC(C)(C)O)C1 (stereo not drawn) [Example 271, 4-[1-(4-Amino-3-methyl-1H-pyrazolo[3,4-d]pyrimidin-1-yl)ethyl]-6-chloro-2-[1-(2-hydroxy-2-methylpropyl)azetidin-3-yl]-3-methoxybenzonitrile] | ≤ 10
15 | CCOc1c(C(C)n2nc(C)c3c(N)ncnc32)cc(Cl)c(F)c1C1CNC(=O)C1 (single isomer, unassigned) [Example 346, 4-{3-[1-(4-amino-3-methyl-1H-pyrazolo[3,4-d]pyrimidin-1-yl)ethyl]-5-chloro-2-ethoxy-6-fluorophenyl}pyrrolidin-2-one] | ≤ 10
16 | COc1c(C(C)n2nc(C)c3c(N)ncnc32)cc(Cl)c(C)c1C1CN(C(=O)c2cn[nH]c2)C1 (single isomer, unassigned) [Example 124, 1-(1-{5-Chloro-2-methoxy-4-methyl-3-[1-(1H-pyrazol-4-ylcarbonyl)azetidin-3-yl]phenyl}ethyl)-3-methyl-1H-pyrazolo[3,4-d]pyrimidin-4-amine] | ≤ 10
17 | CCOc1c(C(C)n2nc(C)c3c(N)ncnc32)cc(Cl)c(C#N)c1C1CN(S(C)(=O)=O)C1 (stereo not drawn) [Example 248, 4-[1-(4-Amino-3-methyl-1H-pyrazolo[3,4-d]pyrimidin-1-yl)ethyl]-6-chloro-3-ethoxy-2-[1-(methylsulfonyl)azetidin-3-yl]benzonitrile] | ≤ 10
18 | CCOC(=O)N1CC(c2c(C#N)c(Cl)cc(C(C)n3nc(C)c4c(N)ncnc43)c2OC)C1 (single isomer, unassigned) [Example 290, Ethyl 3-{3-[1-(4-amino-3-methyl-1H-pyrazolo[3,4-d]pyrimidin-1-yl)ethyl]-5-chloro-6-cyano-2-methoxyphenyl}azetidine-1-carboxylate] | ≤ 10
19 | CCOc1c(C(C)n2nc(C)c3c(N)ncnc32)cc(Cl)c(C#N)c1C1CN(CCOC)C1 (stereo not drawn) [Example 225, 4-[1-(4-Amino-3-methyl-1H-pyrazolo[3,4-d]pyrimidin-1-yl)ethyl]-6-chloro-3-ethoxy-2-[1-(2-methoxyethyl)azetidin-3-yl]benzonitrile] | ≤ 10
20 | CCOc1c(C(C)n2nc(C)c3c(N)ncnc32)cc(Cl)c(F)c1C1CN(CC)C1 (racemic) [Example 146, 1-{1-[5-Chloro-2-ethoxy-3-(1-ethylazetidin-3-yl)-4-fluorophenyl]ethyl}-3-methyl-1H-pyrazolo[3,4-d]pyrimidin-4-amine] | ≤ 10
21 | CCOc1c(C(C)n2nc(C)c3c(N)ncnc32)cc(Cl)c(C#N)c1C1CN(C(C)=O)C1 (single isomer, unassigned) [Example 242, 2-(1-Acetylazetidin-3-yl)-4-[1-(4-amino-3-methyl-1H-pyrazolo[3,4-d]pyrimidin-1-yl)ethyl]-6-chloro-3-ethoxybenzonitrile] | ≤ 10
22 | CCOc1c(C(C)n2nc(CNC)c3c(N)ncnc32)cc(Cl)c(C)c1-c1ccc(C(=O)N(C)C)nc1 (racemic) [Example 84, 5-[3-(1-{4-Amino-3-[(methylamino)methyl]-1H-pyrazolo[3,4-d]pyrimidin-1-yl}ethyl)-5-chloro-2-ethoxy-6-methylphenyl]-N,N-dimethylpyridine-2-carboxamide tris(trifluoroacetate)] | 50 to 200
23 | COc1c(C(C)n2ccc(=O)c3c(N)ncnc32)cc(Cl)c(C)c1-c1cncnc1 (racemic) [Example 29, 4-Amino-8-[1-(5-chloro-2-methoxy-4-methyl-3-pyrimidin-5-ylphenyl)ethyl]pyrido[2,3-d]pyrimidin-5(8H)-one bis(trifluoroacetate)] | ≤ 10
24 | COc1c(C(C)n2nc(C)c3c(N)ncnc32)cc(Cl)c(C)c1C1CN(C(=O)C2CC2)C1 (single isomer, unassigned) [Example 119, 1-(1-{5-Chloro-3-[1-(cyclopropylcarbonyl)azetidin-3-yl]-2-methoxy-4-methylphenyl}ethyl)-3-methyl-1H-pyrazolo[3,4-d]pyrimidin-4-amine] | ≤ 10
25 | CCOc1c(C(C)n2nc(C)c3c(N)ncnc32)cc(Cl)c(C)c1C1CNC(=O)C1 (single isomer, unassigned) [Example 311, 4-{3-[1-(4-amino-3-methyl-1H-pyrazolo[3,4-d]pyrimidin-1-yl)ethyl]-5-chloro-2-ethoxy-6-methylphenyl}pyrrolidin-2-one] | ≤ 10
26 | CCOc1c(C(C)n2nc(C)c3c(N)ncnc32)cc(Cl)c(C#N)c1C1CN(C(=O)C(C)(C)C)C1 (single isomer, unassigned) [Example 245, 4-[1-(4-Amino-3-methyl-1H-pyrazolo[3,4-d]pyrimidin-1-yl)ethyl]-6-chloro-2-[1-(2,2-dimethylpropanoyl)azetidin-3-yl]-3-ethoxybenzonitrile] | ≤ 10
27 | CCOc1c(C(C)n2nc(C)c3c(N)ncnc32)cc(Cl)c(C#N)c1C1CN(C(=O)CC)C1 (single isomer, unassigned) [Example 243, 4-[1-(4-Amino-3-methyl-1H-pyrazolo[3,4-d]pyrimidin-1-yl)ethyl]-6-chloro-3-ethoxy-2-(1-propionylazetidin-3-yl)benzonitrile] | ≤ 10
